Among the data in US10793576B2, “Compound used as Bruton's tyrosine kinase inhibitor and preparation method and application thereof” (Chengdu Brilliant Pharmaceutical Co., LTD., priority 2017, dated 2020) are IC50 values, retold here.

The target in one assay is BTK kinase (Homo sapiens (Human), UniProt Q06187). Briefly: In vitro assay for the inhibition of BTK kinase activity (Mobility-Shift Assay). It counts as biochemical. An excerpt: Mobility-Shift Assay, which is microfluidic chip technology, applies the basic concept of capillary electrophoresis to microfluidic environments. The substrate used for the experiment is a polypeptide with a fluorescent label. Under the action of enzyme in the reaction system, the substrate is transformed into a product, and the charge the substrate carries also changes accordingly. The use of the charge difference between the substrate and the product involved in Mobility-Shift Assay achieves the separating of the two, and they are tested respectively. The test results are expressed by conversion rates.
(3) 100% DMSO was added to the positive control well and the negative control well, respectively;

Another assay concerns DOHH2 cells. The experiment in a line: Cell proliferation inhibition in vitro, DOHH2 cells by CTG assay. It counts as cell-based. Particulars: Homo sapiens, DOHH-2, 72 hours, read-out: Inhibitions of cell activities IC50 (nM) DOHH2. How it is done: (§1) Test Example 2: Determination of the Inhibition of Cell Proliferation Inhibitory Activity in
(§2) vitro of compounds using different cell lines
(§3) 2: Preparation of the Compounds:
(§4) The compounds to be tested were diluted with DMSO to prepare a mother liquor at a final concentration of 10 mM for later use.
3.2 Test of DOHH2 Cells by CTG Assay
(§5) Logarithmic growth phase cells were collected, counted and resuspended in complete medium. The cell concentration was adjusted to a suitable concentration (determined according to the cell density optimization test results), and seeded to 96-well plate and 100 μl of the cell suspension was added to each well. The cells were incubated in an incubator at 37° C., 100% relative humidity and 5% C02 for 24 hours.
The compounds to be tested were diluted with the medium to the set corresponding action concentration, and the cells were added at 10 µl/well. The cells were incubated in an incubator set at 37° C., 100% relative humidity and 5% C02 for 72 hours.
The medium was aspirated and discarded, and 30 μl of test reagent was added. The plate was gentle shaken away from the light to lyse the cells.
(§6) As: OA of the sample (cell+test reagent+test compound)
(§7) Ac: OA of the negative control (cell+test reagent+DMSO)
(§8) Ab: OA of the positive control (medium+test reagent+DMSO)
(§9) IC50 curve fitting was performed using the software Graphpad Prism 5 or XLfit and IC50 values were calculated.

The subject of a further assay is TMD8 cells. The experiment in a line: Cell proliferation inhibition in vitro, TMD8 cells by CCK-8 method. Particulars: Homo sapiens, 72 hours, read-out: Inhibitions of cell activities IC50 (nM) TMD8. It counts as cell-based. As for the experimental part:
as §1, §2, §3, §4
(§10) 3.1. Test of TMD8 and OCI-ly10 Cells by CCK-8 Method
as §5
(§11) The compounds to be tested were diluted with the medium to the set corresponding action concentration, and the cells were added at 25 µl/well. The cells were incubated in an incubator at 37° C., 100% relative humidity and 5% C02 for 72 hours.
(§12) The medium was aspirated and discarded, and a complete medium containing 10% of the test reagent was added and the obtained system was incubated in a 37° C. incubator for 1 hour-4 hours.
as §6, §7, §8, §9
For orientation: Formazan colour is commonly taken as a measure of viable cells.

The next assay has as its system OCI-LY10 cells. The experiment in a line: Cell proliferation inhibition in vitro, OCI-ly10 cells by CCK-8 method. It is filed as cell-based. Particulars: Homo sapiens, 72 hours, read-out: Inhibitions of cell activities IC50 (nM) OCI-LY10. How it is done:
as §1, §2, §3, §4, §10, §5, §11, §12, §6, §7, §8, §9

BTK kinase, sequence (Q06187 whole entry): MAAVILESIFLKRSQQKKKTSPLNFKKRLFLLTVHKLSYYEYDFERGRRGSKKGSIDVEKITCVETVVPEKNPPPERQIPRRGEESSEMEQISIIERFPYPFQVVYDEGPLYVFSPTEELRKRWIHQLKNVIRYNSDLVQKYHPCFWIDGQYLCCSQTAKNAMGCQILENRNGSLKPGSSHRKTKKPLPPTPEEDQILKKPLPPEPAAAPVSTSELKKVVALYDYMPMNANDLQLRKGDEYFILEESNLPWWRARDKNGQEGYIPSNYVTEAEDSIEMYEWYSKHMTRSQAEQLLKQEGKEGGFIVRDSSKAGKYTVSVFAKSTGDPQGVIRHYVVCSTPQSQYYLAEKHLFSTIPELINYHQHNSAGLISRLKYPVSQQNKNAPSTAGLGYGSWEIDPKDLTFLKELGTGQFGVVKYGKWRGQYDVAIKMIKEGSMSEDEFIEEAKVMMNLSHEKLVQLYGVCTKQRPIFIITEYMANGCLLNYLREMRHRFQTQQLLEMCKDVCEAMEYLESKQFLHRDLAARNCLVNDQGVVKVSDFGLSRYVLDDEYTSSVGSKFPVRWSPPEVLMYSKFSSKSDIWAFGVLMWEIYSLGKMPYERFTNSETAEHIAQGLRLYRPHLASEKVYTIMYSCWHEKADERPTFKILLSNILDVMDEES

For orientation: IC50 means the midpoint of a concentration-inhibition curve. As for `C=CC(=O)N1C(c2nc(-c3ccc(C(=O)Nc4cc(Cl)ccn4)cc3)c3c(N)nccn23)CC2CC21` (centres unmarked) [Example 71], the IC50 at BTK kinase worked out at 12 nM; in the assay with DOHH2 cells it was 84 nM; with TMD8 cells it was 8.4 nM; in the assay on OCI-LY10 cells, 1.4 nM.
The corresponding values for `C=CC(=O)N1C2CC[C@@H](C2)C1c1nc(-c2ccc(Oc3ccccc3)cc2)c2c(N)nccn12` (some centres unmarked) [Example 98] are 24 nM, > 1000 nM, 6.8 nM and 0.33 nM.
Turning to `CC#CC(=O)N1C[C@H]2[C@@H]([C@H]1c1nc(-c3ccc(C(=O)Nc4ccccn4)cc3)c3c(N)nccn13)C2(C)C` [Example 6], the IC50 was 9.1 nM on BTK kinase, > 1000 nM in the assay with DOHH2 cells, 5.4 nM with TMD8 cells and 0.21 nM with OCI-LY10 cells.
The corresponding values for `C=CC(=O)N1C2C[C@@H](C1c1nc(-c3ccc(C(=O)Nc4cc(C(F)(F)F)ccn4)cc3)c3c(N)nccn13)N(C(C)C)C2` (some centres unmarked) [Example 55] are 2.3 nM, 97 nM, 0.48 nM and 1.87 nM.
In the same order, the values of `CC#CC(=O)N1C2CN[C@@H](C2)C1c1nc(-c2ccc(Oc3ccccc3)cc2)c2c(N)nccn12` (some centres unmarked) [Example 107] are 41 nM, 986 nM, 12.3 nM and 0.81 nM.
As for `C=CC(=O)N1CC2(CC2)C[C@H]1c1nc(-c2ccccc2C(=O)Nc2ccccn2)c2c(N)nccn12` [Example 125, (S)-2-(3-(5-acryloyl-5-azaspiro[2.4]heptan-6-yl)-8-aminoimidazo[1,5-a]pyrazin-1-yl)-N-(pyridin-2-yl)benzamide], the IC50 at BTK kinase is 58 nM; with DOHH2 cells it was > 1000 nM; in the assay with TMD8 cells, 24.9 nM; in the assay on OCI-LY10 cells, 8.7 nM.
The corresponding values for `CC#CC(=O)N1CC2CCCC2C1c1nc(-c2ccc(Oc3ccccc3)cc2)c2c(N)nccn12` (centres unmarked) [Example 97] are 2.8 nM, > 1000 nM, 6.2 nM and 0.4 nM.
As to `C=CC(=O)N1C2C[C@@H](C1c1nc(-c3ccc(Oc4ccccc4)cc3)c3c(N)nccn13)N(C(C)=O)C2` (some centres unmarked) [Example 110], the IC50 at BTK kinase was 36 nM; in the assay on DOHH2 cells it was 198 nM; with TMD8 cells, 1.2 nM; with OCI-LY10 cells, 0.21 nM.
The corresponding values for `C=CC(=O)N1C2CN[C@@H](C2)C1c1nc(-c2ccc(Oc3ccccc3)cc2)c2c(N)nccn12` (some centres unmarked) [Example 106] are 47 nM, > 1000 nM, 21.4 nM and 0.78 nM.
The corresponding values for `CC#CC(=O)N1CC2(CC2)C[C@H]1c1nc(-c2ccc(Oc3ccccc3)cc2)c2c(N)nccn12` [Example 92, (S)-1-(6-(8-amino-1-(4-phenoxyphenyl)imidazo[1,5-a]pyrazin-3-yl)-5-azaspiro[2.4]heptan-5-yl) but-2-yn-1-one] are 4.3 nM, 712 nM, 7.6 nM and 0.31 nM.
As for `C=CC(=O)N1C2CCC1(c1nc(-c3ccc(C(=O)Nc4cc(C(F)(F)F)ccn4)cc3)c3c(N)nccn13)COC2` (centres unmarked) [Example 48], the IC50 on BTK kinase came out at 2.1 nM; in the assay on DOHH2 cells it was 103 nM; with TMD8 cells it was 0.31 nM; in the assay on OCI-LY10 cells it was 0.46 nM.
The corresponding values for `CC#CC(=O)N1C2CN[C@@H](C2)C1c1nc(-c2ccc(C(=O)Nc3ccccn3)cc2)c2c(N)nccn12` (some centres unmarked) [Example 14] are 12.5 nM, > 1000 nM, 7.5 nM and 1.8 nM.
In the same order, the values of `C=CC(=O)N1C2CN[C@@H](C2)C1c1nc(-c2ccc(C(=O)Nc3ccccn3)cc2)c2c(N)nccn12` (some centres unmarked) [Example 13] are 3.3 nM, 138 nM, 0.38 nM and 0.67 nM.
In the same order, the values of `CC#CC(=O)N1C2CCC1(c1nc(-c3ccc(C(=O)Nc4cc(C(F)(F)F)ccn4)cc3)c3c(N)nccn13)COC2` (centres unmarked) [Example 49] are 4.8 nM, 436 nM, 6.4 nM and 3.4 nM.
`C=CC(=O)N1C2C[C@@H](C1c1nc(-c3ccc(C(=O)Nc4ccccn4)cc3)c3c(N)nccn13)N(C(C)C)C2` (some centres unmarked) [Example 16]: the IC50 was 9.5 nM at BTK kinase, > 1000 nM in the assay with DOHH2 cells, 1.6 nM with TMD8 cells and 3.1 nM in the assay with OCI-LY10 cells.
In the case of `CN(C/C=C/C(=O)N1CC2CCCC2[C@H]1c1nc(-c2ccc(C(=O)Nc3ccccn3)cc2)c2c(N)nccn12)C1CC1` (stereo partly drawn) [Example 115, 4-(8-amino-3-((1S)-2-((E)-4-(cyclopropyl(methyl)amino)-2-butenoyl)octahydrocyclopenta[c]pyrrol-1-yl)imidazo[1,5-a]pyrazin-1-yl)-N-(pyridin-2-yl) benzamide], the IC50 on BTK kinase was 26 nM; in the assay with DOHH2 cells it was > 1000 nM; in the assay with TMD8 cells, 17.6 nM; with OCI-LY10 cells, 12.1 nM.
Consider `C=CC(=O)N1C[C@H]2[C@@H]([C@H]1c1nc(-c3ccc(C(=O)Nc4cc(Cl)ccn4)cc3)c3c(N)nccn13)C2(C)C` [Example 69], for which the IC50 stood at 1.4 nM on BTK kinase, 124 nM in the assay with DOHH2 cells, 0.62 nM in the assay with TMD8 cells and 0.74 nM in the assay on OCI-LY10 cells.
In the same order, the values of `CN(C)C/C=C/C(=O)N1CC2CCCC2[C@H]1c1nc(-c2ccc(C(=O)Nc3ccccn3)cc2)c2c(N)nccn12` (stereo partly drawn) [Example 113, 4-(8-amino-3-((1S)-2-((E)-4-(dimethylamino)-2-butenoyl)octahydrocyclopenta [c]pyrrol-1-yl)imidazo[1,5-a]pyrazin-1-yl)-N-(pyridin-2-yl)benzamide] are 4.6 nM, > 1000 nM, 12.5 nM and 7.4 nM.
In the same order, the values of `CC#CC(=O)N1C2CCC1(c1nc(-c3ccc(C(=O)Nc4ccccn4)cc3)c3c(N)nccn13)COC2` (centres unmarked) [Example 12] are 14 nM, 129 nM, 4.3 nM and 7.4 nM.
In the same order, the values of `C=CC(=O)N1C2CC[C@@H](C2)C1c1nc(-c2ccc(C(=O)Nc3cc(C(F)(F)F)ccn3)cc2)c2c(N)nccn12` (some centres unmarked) [Example 46] are 4.2 nM, 94.3 nM, 3.4 nM and 0.37 nM.
For the molecule `CC#CC(=O)N1C2CCC1(c1nc(-c3ccc(Oc4ccccc4)cc3)c3c(N)nccn13)COC2` (centres unmarked) [Example 105], the IC50 at BTK kinase is 18 nM; with DOHH2 cells, 916 nM; with TMD8 cells, 8.4 nM; in the assay on OCI-LY10 cells it was 0.41 nM.
In the same order, the values of `CC#CC(=O)N1C2CN[C@@H](C2)C1c1nc(-c2ccc(C(=O)Nc3cc(C(F)(F)F)ccn3)cc2)c2c(N)nccn12` (some centres unmarked) [Example 53] are 1.8 nM, 166 nM, 0.75 nM and 1.3 nM.
Take `C=CC(=O)N1CC2(CC2)C[C@H]1c1nc(-c2ccc(Oc3ccccc3)cc2)c2c(N)nccn12` [Example 93, (S)-1-(6-(8-amino-1-(4-phenoxyphenyl)imidazo[1,5-a]pyrazin-3-yl)-5-azaspiro[2.4]heptan-5-yl)prop-2-en-1-one]: the IC50 on BTK kinase was determined as 3.6 nM; in the assay with DOHH2 cells, 318 nM; in the assay on TMD8 cells, 0.65 nM; in the assay with OCI-LY10 cells it was 0.53 nM.
In the same order, the values of `CC#CC(=O)N1C2CC[C@@H](C2)C1c1nc(-c2ccc(Oc3ccccc3)cc2)c2c(N)nccn12` (some centres unmarked) [Example 99] are 39 nM, > 1000 nM, 5.4 nM and 2.7 nM.
In the case of `CC#CC(=O)N1C2C[C@@H](C1c1nc(-c3ccc(C(C)(O)c4ccccc4)cc3)c3c(N)nccn13)N(C(C)C)C2` (some centres unmarked) [Example 91], the 50% inhibitory concentration (IC50) on BTK kinase was 21 nM; in the assay with DOHH2 cells, > 1000 nM; in the assay on TMD8 cells, 1.4 nM; with OCI-LY10 cells, 0.41 nM.
The corresponding values for `C=CC(=O)N1C2CN[C@@H](C2)C1c1nc(-c2ccc(C(=O)Nc3cc(C(F)(F)F)ccn3)cc2)c2c(N)nccn12` (some centres unmarked) [Example 52] are 2.4 nM, 174 nM, 6.4 nM and 0.35 nM.
